Experimental data published in patent US8969554B2, “6-acyl-1,2,4-triazine-3,5-dione derivative and herbicides” (Kumiai Chemical Industry Co., Ltd., priority 2010, dated 2015).

Columns and labels:
Assay type in all cases: in vivo
Indian millet [1] = experiment: Herbicidal activity by field foliage treatment (Test example 3); design: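 index 0 to 10 in 10% steps of herbicidal effect with 10 meaning complete death and 0 below 10%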; conditions: 1000 g effective component per hectare, day 14 after the treatment
How it was run: (§1)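 Field soil in pots; Indian millet and A. retroflexus grown 2 weeks in greenhouse, then sprayed over whole plant with water-diluted wettable powder at 1000 L/ha, giving 1000 g active component/ha. Herbicidal effect scored by set criteria on day 14 after treatment.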

A. retroflexus [2] = experiment: as above; design: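 index 0 to 10 in 10% steps of herbicidal effect with 10 meaning complete death and 0 below 10%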; conditions: 1000 g effective component per hectare, day 14 after the treatment
How it was run: as §1

Setaria viridis = experiment: as above; conditions: 1000 g effective component per hectare, day 14 after the treatment;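 further: index 0 to 10 in 10% steps of herbicidal effect with 10 meaning complete death and 0 below 10%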
How it was run: (§2)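 Potted field-soil plants grown 2 weeks in a greenhouse were sprayed over the whole foliage with diluted wettable powder at 1000 L/ha, delivering 1000 g active ingredient per hectare. Herbicidal effect scored by visual criteria 14 days after treatment.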

Monochoria vaginalis = experiment: Herbicidal activity by paddy field soil treatment (Test Example 1); design: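 index 0 to 10 in 10% steps of herbicidal effect with 10 meaning complete death and 0 below 10%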; conditions: 1000 g of effective component per hectare, evaluated on day 21 after the treatment, criteria of Table 72
How it was run: (§3)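 Paddy soil in pots sown with seeds, flooded to 3 cm; next day wettable powder diluted in water applied to water surface at 1000 g active ingredient/ha. Greenhouse-grown; herbicidal effect scored on day 21 after treatment against rating criteria.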

Echinochloa oryzicola = experiment: as above; design: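 index 0 to 10 in 10% steps of herbicidal effect with 10 meaning complete death and 0 below 10%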; conditions: 1000 g of effective component per hectare, evaluated on day 21 after the treatment, criteria of Table 72
How it was run: as §3

Scirpus juncoides Rocxb. = experiment: as above; design: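 index 0 to 10 in 10% steps of herbicidal effect with 10 meaning complete death and 0 below 10%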; conditions: applied on water surface, 1000 g of effective component per hectare, day 21 after the treatment
How it was run: as §3

Indian millet [3] = experiment: Herbicidal activity by field soil treatment (Test example 2); design: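 index 0 to 10 in 10% steps of herbicidal effect with 10 meaning complete death and 0 below 10%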; conditions: 1000 g effective component per hectare, day 21 after the treatment
How it was run: (§4)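 Seeds of the four weeds sown in field soil in pots; wettable powder diluted in water sprayed pre-emergence on soil surface at 1000 L/ha, giving 1000 g active per hectare. Greenhouse grown; herbicidal effect scored on day 21 after treatment by set criteria.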

A. retroflexus [4] = experiment: as above; design: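 index 0 to 10 in 10% steps of herbicidal effect with 10 meaning complete death and 0 below 10%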; conditions: 1000 g effective component per hectare, day 21 after the treatment
How it was run: as §4

Echinochloa crus-galli [5] = experiment: as above; design: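 index 0 to 10 in 10% steps of herbicidal effect with 10 meaning complete death and 0 below 10%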; conditions: 1000 g effective component per hectare, day 21 after the treatment
How it was run: as §4

Echinochloa crus-galli [6] = experiment: Herbicidal activity by field foliage treatment (Test example 3); design: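 index 0 to 10 in 10% steps of herbicidal effect with 10 meaning complete death and 0 below 10%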; conditions: 1000 g effective component per hectare, day 14 after the treatment
How it was run: as §2

foxtail = experiment: Herbicidal activity by field soil treatment (Test example 2); conditions: 1000 g effective component per hectare, day 21 after the treatment;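 further: index 0 to 10 in 10% steps of herbicidal effect with 10 meaning complete death and 0 below 10%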
How it was run: as §4

Compound | herbicidal effect index, Abutilon theophrasti (Indian millet [1]) | herbicidal effect index, Amaranthus retroflexus (A. retroflexus [2]) | herbicidal effect index, Setaria viridis (Setaria viridis) | Herbicidal effects index number, Monochoria vaginalis (Monochoria vaginalis) | Herbicidal effects index number, Echinochloa oryzicola (Echinochloa oryzicola) | herbicidal effect index, S. juncoides Rocxb. (Scirpus juncoides Rocxb.) | herbicidal effect index, Abutilon theophrasti (Indian millet [3]) | herbicidal effect index, Amaranthus retroflexus (A. retroflexus [4]) | herbicidal effect index, Echinochloa crus-galli (Echinochloa crus-galli [5]) | herbicidal effect index, Echinochloa crus-galli (Echinochloa crus-galli [6]) | herbicidal effect index, Setaria viridis (foxtail)
COc1ccc(-n2c(=O)c(C(=O)C3=C(O)CCCC3=O)nn(C)c2=O)c(OC)c1OC [I-298] | 9 | 10 | 8 | 10 | 10 | 10 | 10 | 10 | 7 | 10 | 7
COc1ccc(-n2c(=O)c(C(=O)C3=C(O)CCCC3=O)nn(C)c2=O)cc1OC [I-93] | 10 | 10 | 9 | 10 | 8 | 10 | 10 | 10 | 7 | 9 | 6
Cn1nc(C(=O)C2=C(O)CCCC2=O)c(=O)n(-c2ccc(C#N)cc2)c1=O [I-74] | 9 | 10 | 9 | 10 | 10 | 10 | 10 | 10 | 10 | 9 | 7
Cc1ccc(Cl)c(-n2c(=O)c(C(=O)C3=C(O)CCCC3=O)nn(C)c2=O)c1 [I-129] | 9 | 10 | 9 | 10 | 10 | 10 | 10 | 10 | 9 | 10 | 10
CC(C)c1ccccc1-n1c(=O)c(C(=O)C2=C(O)CCCC2=O)nn(C)c1=O [I-286] | 9 | 10 | 10 | 10 | 10 | 9 | 9 | 10 | 10 | 10 | 9
Cn1nc(C(=O)C2=C(O)CCCC2=O)c(=O)n(-c2cccc(F)c2)c1=O [I-55] | 10 | 10 | 10 | 10 | 10 | 10 | 10 | 10 | 10 | 10 | 10
Cn1nc(C(=O)C2=C(O)CCCC2=O)c(=O)n(-c2ccccc2F)c1=O [I-54] | 10 | 10 | 10 | 10 | 10 | 10 | 10 | 10 | 10 | 10 | 10
Cc1ccc(-n2c(=O)c(C(=O)C3=C(O)CCCC3=O)nn(C)c2=O)c(Cl)c1 [I-128] | 10 | 10 | 10 | 9 | 8 | 10 | 10 | 10 | 8 | 9 | 9
Cn1nc(C(=O)C2=C(O)CCCC2=O)c(=O)n(-c2c(F)cccc2F)c1=O [I-80] | 9 | 10 | 7 | 10 | 10 | 10 | 9 | 10 | 9 | 10 | 9
Cc1ccc(-n2c(=O)c(C(=O)C3=C(O)CCCC3=O)nn(C)c2=O)cn1 [I-289] | 9 | 10 | 7 | 10 | 10 | 10 | 9 | 10 | 9 | 9 | 7
Cc1ccc(F)c(-n2c(=O)c(C(=O)C3=C(O)CCCC3=O)nn(C)c2=O)c1 [I-109] | 9 | 9 | 7 | 10 | 10 | 10 | 10 | 10 | 9 | 10 | 6
Cn1nc(C(=O)C2=C(O)CCCC2=O)c(=O)n(N2CCOCC2)c1=O [I-202] | 9 | 9 | 9 | 10 | 10 | 10 | 9 | 10 | 10 | 9 | 9
Cn1nc(C(=O)C2=C(O)CCCC2=O)c(=O)n(-c2cc(F)ccc2F)c1=O [I-79] | 10 | 10 | 10 | 10 | 10 | 10 | 10 | 10 | 9 | 10 | 10
Cn1nc(C(=O)C2=C(O)CCCC2=O)c(=O)n(-c2ccccc2C(F)(F)F)c1=O [I-63] | 10 | 10 | 10 | 10 | 10 | 10 | 10 | 10 | 10 | 10 | 10
Cn1nc(C(=O)C2=C(O)CCCC2=O)c(=O)n(-c2cccc(Cl)c2)c1=O [I-52] | 10 | 10 | 10 | 10 | 10 | 10 | 10 | 10 | 10 | 10 | 10
